The results in this text go back to patent publication US20240366612A1, “COMPOUNDS AND METHODS FOR MODULATING NUCLEIC ACID SPLICING” (REMIX THERAPEUTICS INC., priority 2021, published 2024).

In series [1] the test system is HiBiT-tagged MYB protein in K562 cells. Nature of the series: HiBiT protein abundance assay, MYB. The note with it: HiBiT-modified K562 cells, 24 hours, luminescence. In kind it is cell-based, human. As for the experimental part:
(§1) Compounds described herein were used to screen for effects on quantitative protein abundance using a HiBit assay system (Promega). Quantitative protein abundance was determined by measuring the protein levels of HiBit-tagged protein targets expressed in cell culture via luminescence using the Nano-Glo HiBiT Lytic Detection System, which uses a split complementation assay format to reconstitute NanoBiT enzyme to generate a luminescent signal. A protein abundance assay was developed such that endogenous protein targets could be modified with the HiBiT peptide tag and their abundance could be assessed after compound treatment. Briefly, K562 cell lines containing a HiBiT-modification were treated with various compounds described herein (e.g., compounds of Formulas (I), (II), or (III)). After treatment for 24 hours, the protein abundance of a specific target was determined by measuring luminescence.
(§2) • Promega Nano-Glo HiBiT Lytic Detection System (cat #N3030) • Corning 384-well TC-treated microplates (cat #3570) • Synthego Engineered Cells Knock-In Clones
(§3) Cells were maintained in IMDM with 10% FBS. Before the assay, cells were diluted with […] growth media (IMDM+1% FBS media) and were seeded in a 384-well plate at a density of 10000 cells/well (for each cell line listed in Table 5). Each compound was prepared as a 10-point 3-fold serial dilution in DMSO with the top dose at a final concentration of 10 μM in the well. Unmodified K562 cells were added at the previously specified density with DMSO to serve as an assay baseline and positive control (PC) and DMSO only with the respective modified cell lines was added to the negative control (NC) columns. Final DMSO concentration was kept at or below 0.25%. Treated cell plates were placed in an incubator at 37° C. with 5% CO2 for 24 hours. After 24 hours, 25 μL of Complete HiBit Lytic reagent was added to each well at room temperature (e.g. one plate requiring 10 mL Lytic Buffer, 100 μL LgBiT Protein, 200 μL Lytic Substrate), shaken for 5 minutes at 600 RPM, then left to sit for 10 minutes for signal to stabilize before reading on a Spark Cyto plate reader (Tecan) with a 500 ms measurement time.
(§4) To determine compound effects on protein abundance of each target in Table 5, the percent response for each respective cell line was calculated at each compound concentration as follows:
(§5) For the normalized response at each concentration, a four-parameter logistical regression was fit to the data and the response was interpolated at the 50% value to determine a concentration for protein abundance at 50% (IC50) the untreated control.

Series [2] has as its system HiBiT-tagged Target C protein in K562 cells. Description: HiBiT protein abundance assay, Target C. The note with it: HiBiT-modified K562 cells, 24 hours, luminescence. In kind it is cell-based, human. On the procedure: as §1, §2, §3, §4, §5
The test system of series [3] is HiBiT-tagged HTT protein in K562 cells. Description: HiBiT protein abundance assay, HTT. Type of series: cell-based, human. The note with it: HiBiT-modified K562 cells, 24 hours, luminescence. As for the experimental part:
as §1, §2, §3, §4, §5

The nature of series [4]: Cell Titer Glo 2.0 cell viability assay. The note with it: human, K562 cells.
Experimental: Compounds described herein were screened for toxicity in K562 (human chronic myelogenous leukemia) cells using a Cell Titer Glo 2.0 assay.
• Promega CellTiter-Gbo® 2.0 Cell Viability Assay (cat #G9241) • Corning 384-well TC-treated microplates (cat #3570)
Cells were plated at 500 cells/well (K562 cells) in 45 μL of IMDM supplemented with 10% FBS in a 384-well opaque plate. Wells containing only medium were used as a blank control. Test compounds (e.g., compounds of Formula (I), (II), and (III)) were first serially diluted in DMSO then diluted 1:100 with IMDM+10% FBS. The final concentration of DMSO was 0.1% in each well. The cells were incubated for 72 hours at 37° C. and 5% CO2 before assaying with Cell Titer Glo 2.0 reagent.

Regarding `Cc1c(O)c(-c2nc3ncn(C4CCNCC4)c(=O)c3s2)cc2cn(C)nc12` [Compound 336, 2-(6-hydroxy-2,7-dimethylindazol-5-yl)-6-(piperidin-4-yl)-[1,3]thiazolo[4,5-d]pyrimidin-7-one], the IC50 in series [1], in series [2] and in series [3] was 100 to 1000 nM throughout. This compound also registered a GI50 at 72 h in series [4] of 1000 to 10000 nM.
